The values that follow come from patent US20180153899A1, “PHARMACEUTICAL COMPOSITIONS” (Novartis AG, priority 2015, published 2018).

The series in a line: Clinical study, steady state PK (Cycle 1 Day 15) after daily oral tablets of example 1. Format: in vivo, human. As to conditions: for AUC(0-t) / Cmax / Tmax / half-life / AUC: human, in vivo; for Tmax: median (minimum-maximum); for half-life: read-out: T½ (converted). On the procedure: Non-small cell lung cancer patients with EGFR T790M mutation were enrolled in a clinical study and received escalating doses of EGF816 ranging from 100 mg to 225 mg daily oral doses by using the tablets as described in example 1.

Setting [1] is: 150 mg qd (N = 6), geometric mean (CV %).
Setting [2] is: 200 mg qd (N = 7), geometric mean (CV %).
Setting [3] is: 225 mg qd (N = 7), geometric mean (CV %).
Setting [4] is: 100 mg qd (N = 3), geometric mean (CV %).

Where two headings read alike, the source gives them in different places.

A word on the AUC(0-t): it is the area under the concentration-time curve up to a stated or last time point. The low end stands for less exposure, the high end for more exposure. As usually defined, the Cmax is the peak of the concentration-time curve. By Tmax is commonly meant the time at which the peak concentration occurs. By AUC is commonly meant concentration integrated over time. A high value points to more exposure. For the molecule `Cc1cc(C(=O)Nc2nc3cccc(Cl)c3n2[C@@H]2CCCCN(C(=O)/C=C/CN(C)C)C2)ccn1` [EGF816, (R,E)-N-(7-chloro-1-(1-(4-(dimethylamino)but-2-enoyl)azepan-3-yl)-1H-benzo[d]imidazol-2-yl)-2-methylisonicotinamide], the CLss/F is listed as 238 (38) mL/min under setting [1], 247 (58) mL/min under setting [2] and 222 (37) mL/min under setting [3]. The same molecule registered an AUC(0-t) under setting [4] of 9050 ng·h/mL, an exposure AUC(0-t) under setting [1] of 10300 ng·h/mL, an AUC(0-t) under setting [2] of 13500 ng·h/mL and an area under the curve AUC(0-t) under setting [3] of 12100 ng·h/mL. For the same molecule, the Cmax by setting is: under setting [4], 519 ng/mL; under setting [1], 675 ng/mL; under setting [2], 939 ng/mL; under setting [3], 1270 ng/mL. Further, the time to peak (Tmax) is 6 h (100 mg qd (N = 3)), 5 h (150 mg qd (N = 6)), 3 h (200 mg qd (N = 7)) and 3 h (225 mg qd (N = 7)). The half-life was 14 h (100 mg qd (N = 3), only one value calculated); 17 h under setting [1]; 13 h under setting [2]; 10 h under setting [3]. In addition, the area under the curve (AUC) runs as follows: under setting [1], 10500 ng·h/mL; under setting [2], 13500 ng·h/mL; under setting [3], 16900 ng·h/mL.
